Laboratory results as given in PubChem BioAssay (NCI).
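Cells were grown in 96-well plates and exposed to each compound for 48 hours at five concentrations; endpoints were interpolated linearly between bracketing concentrations, or set to the highest concentration if not reached. TGI marks complete inhibition of growth.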

Tests used:
Assay in all cases: NCI anticancer screen, dose series, 48 h
SW-620 colon = tested on: SW-620 colon
SN12C renal = tested on: SN12C renal
SK-OV-3 ovarian = tested on: SK-OV-3 ovarian
MALME-3M melanoma = tested on: MALME-3M melanoma
OVCAR-5 ovarian = tested on: OVCAR-5 ovarian
HCT-116 colon = tested on: HCT-116 colon
K-562 leukemia = tested on: K-562 leukemia
A498 renal = tested on: A498 renal
NCI-H226 lung = tested on: NCI-H226 lung
T-47D breast = tested on: T-47D breast
NCI-H522 lung = tested on: NCI-H522 lung
OVCAR-3 ovarian = tested on: OVCAR-3 ovarian
A549 NSCLC = tested on: A549 NSCLC
DU-145 prostate = tested on: DU-145 prostate
MCF7 breast = tested on: MCF7 breast
PC-3 prostate = tested on: PC-3 prostate
HS 578T breast = tested on: HS 578T breast
RPMI-8226 leukemia = tested on: RPMI-8226 leukemia
HCT-15 colon = tested on: HCT-15 colon
CAKI-1 renal = tested on: CAKI-1 renal
786-0 renal = tested on: 786-0 renal
M14 melanoma = tested on: M14 melanoma
OVCAR-8 ovarian = tested on: OVCAR-8 ovarian
SNB-19 CNS = tested on: SNB-19 CNS
BT-549 breast = tested on: BT-549 breast
SK-MEL-5 melanoma = tested on: SK-MEL-5 melanoma
HL-60(TB) leukemia = tested on: HL-60(TB) leukemia
U251 CNS = tested on: U251 CNS
HOP-62 NSCLC = tested on: HOP-62 NSCLC
HOP-92 NSCLC = tested on: HOP-92 NSCLC
NCI-H23 lung = tested on: NCI-H23 lung
RXF 393 renal = tested on: RXF 393 renal
ACHN renal = tested on: ACHN renal
COLO 205 colon = tested on: COLO 205 colon
SR leukemia = tested on: SR leukemia
NCI-H460 lung = tested on: NCI-H460 lung
SF-539 CNS = tested on: SF-539 CNS
TK-10 renal = tested on: TK-10 renal
HCC-2998 colon = tested on: HCC-2998 colon
NCI/ADR-RES ovarian = tested on: NCI/ADR-RES ovarian
SK-MEL-2 melanoma = tested on: SK-MEL-2 melanoma
MOLT-4 leukemia = tested on: MOLT-4 leukemia
SF-295 CNS = tested on: SF-295 CNS
MDA-N = tested on: MDA-N
MDA-MB-435 = tested on: MDA-MB-435
UO-31 renal = tested on: UO-31 renal
EKVX NSCLC = tested on: EKVX NSCLC
IGROV1 ovarian = tested on: IGROV1 ovarian
OVCAR-4 ovarian = tested on: OVCAR-4 ovarian
HT29 colon = tested on: HT29 colon
KM12 colon = tested on: KM12 colon
MDA-MB-231 breast = tested on: MDA-MB-231 breast
SNB-75 CNS = tested on: SNB-75 CNS
UACC-257 melanoma = tested on: UACC-257 melanoma
SF-268 CNS = tested on: SF-268 CNS
UACC-62 melanoma = tested on: UACC-62 melanoma
LOX IMVI melanoma = tested on: LOX IMVI melanoma
SK-MEL-28 melanoma = tested on: SK-MEL-28 melanoma
CCRF-CEM leukemia = tested on: CCRF-CEM leukemia

With C=C[C@]1(C)C[C@@H](OC(=O)CO)[C@@]2(C)[C@H](C)CC[C@]3(CCC(=O)[C@H]32)[C@@H](C)[C@@H]1O the TGI (SW-620 colon) was greater than 100 µM, the TGI (SN12C renal) was greater than 100 µM and the TGI (SK-OV-3 ovarian) was greater than 100 µM. The TGI (MALME-3M melanoma) was greater than 100 µM, the TGI (OVCAR-5 ovarian) was greater than 100 µM and the TGI (HCT-116 colon) was greater than 100 µM. It also gave a TGI (K-562 leukemia) greater than 75.1 µM, a TGI (A498 renal) greater than 78.2 µM and a TGI (NCI-H226 lung) greater than 100 µM. The TGI (T-47D breast) was greater than 100 µM, the TGI (NCI-H522 lung) was greater than 100 µM and the TGI (OVCAR-3 ovarian) was greater than 100 µM. For the same molecule, the TGI (A549 NSCLC) was greater than 100 µM, the TGI (DU-145 prostate) was greater than 100 µM and the TGI (MCF7 breast) was greater than 100 µM. It also gave a TGI (PC-3 prostate) greater than 100 µM, a TGI (HS 578T breast) of 97 µM and a TGI (RPMI-8226 leukemia) greater than 100 µM. For the same molecule, the TGI (HCT-15 colon) was greater than 100 µM, the TGI (CAKI-1 renal) was greater than 100 µM and the TGI (786-0 renal) was greater than 100 µM. For the same molecule, the TGI (M14 melanoma) was greater than 100 µM, the TGI (OVCAR-8 ovarian) was greater than 100 µM and the TGI (SNB-19 CNS) was greater than 100 µM. For the same molecule, the TGI (BT-549 breast) was greater than 100 µM, the TGI (SK-MEL-5 melanoma) was greater than 100 µM and the TGI (HL-60(TB) leukemia) was greater than 100 µM. It also gave a TGI (U251 CNS) greater than 100 µM, a TGI (HOP-62 NSCLC) greater than 100 µM and a TGI (HOP-92 NSCLC) greater than 100 µM. The TGI (NCI-H23 lung) was greater than 100 µM, the TGI (RXF 393 renal) was greater than 100 µM and the TGI (ACHN renal) was greater than 100 µM. It also gave a TGI (COLO 205 colon) greater than 100 µM, a TGI (SR leukemia) greater than 74.2 µM and a TGI (NCI-H460 lung) greater than 100 µM. It also gave a TGI (SF-539 CNS) greater than 100 µM, a TGI (TK-10 renal) greater than 100 µM and a TGI (HCC-2998 colon) greater than 100 µM. The TGI (NCI/ADR-RES ovarian) was greater than 100 µM, the TGI (SK-MEL-2 melanoma) was greater than 100 µM and the TGI (MOLT-4 leukemia) was greater than 75.5 µM. The TGI (SF-295 CNS) was greater than 100 µM, the TGI (MDA-N) was greater than 100 µM and the TGI (MDA-MB-435) was greater than 100 µM. For the same molecule, the TGI (UO-31 renal) was greater than 100 µM, the TGI (EKVX NSCLC) was greater than 100 µM and the TGI (IGROV1 ovarian) was greater than 100 µM. For the same molecule, the TGI (OVCAR-4 ovarian) was greater than 100 µM, the TGI (HT29 colon) was greater than 100 µM and the TGI (KM12 colon) was greater than 100 µM. For the same molecule, the TGI (MDA-MB-231 breast) was greater than 100 µM, the TGI (SNB-75 CNS) was greater than 100 µM and the TGI (UACC-257 melanoma) was greater than 100 µM. It also gave a TGI (SF-268 CNS) greater than 100 µM, a TGI (UACC-62 melanoma) greater than 50.3 µM and a TGI (LOX IMVI melanoma) greater than 31.6 µM. For the same molecule, the TGI (SK-MEL-28 melanoma) was greater than 100 µM.

Cc1c2cccc(Sc3ccccc3)c2c2c3c(cccc13)[S+](c1ccccc1)C2 (stereo not drawn) showed a TGI (SW-620 colon) of 16.7 µM, a TGI (SN12C renal) of 11.5 µM and a TGI (SK-OV-3 ovarian) of 6.58 µM. It also gave a TGI (MALME-3M melanoma) of 4.67 µM, a TGI (OVCAR-5 ovarian) of 12.1 µM and a TGI (HCT-116 colon) of 9.59 µM. It also gave a TGI (K-562 leukemia) of 11.2 µM, a TGI (A498 renal) of 8.32 µM and a TGI (NCI-H226 lung) of 7.54 µM. For the same molecule, the TGI (T-47D breast) was 8.24 µM, the TGI (NCI-H522 lung) was 4.51 µM and the TGI (OVCAR-3 ovarian) was 6.01 µM. The TGI (A549 NSCLC) was 14.7 µM, the TGI (DU-145 prostate) was 15.3 µM and the TGI (MCF7 breast) was 8.93 µM. It also gave a TGI (PC-3 prostate) of 5.71 µM, a TGI (HS 578T breast) of 13.9 µM and a TGI (RPMI-8226 leukemia) of 2.85 µM. For the same molecule, the TGI (HCT-15 colon) was 27.8 µM, the TGI (CAKI-1 renal) was 11.4 µM and the TGI (786-0 renal) was 13.9 µM. For the same molecule, the TGI (M14 melanoma) was 6.78 µM, the TGI (OVCAR-8 ovarian) was 12.4 µM and the TGI (SNB-19 CNS) was 11.2 µM. For the same molecule, the TGI (BT-549 breast) was 9.87 µM, the TGI (SK-MEL-5 melanoma) was 2.1 µM and the TGI (HL-60(TB) leukemia) was 2.82 µM. It also gave a TGI (U251 CNS) of 9.41 µM, a TGI (HOP-62 NSCLC) of 7.35 µM and a TGI (HOP-92 NSCLC) of 6.6 µM. The TGI (NCI-H23 lung) was 9.82 µM, the TGI (RXF 393 renal) was 14.9 µM and the TGI (ACHN renal) was 12.7 µM. It also gave a TGI (COLO 205 colon) of 2.46 µM, a TGI (SR leukemia) of 4.91 µM and a TGI (NCI-H460 lung) of 4.1 µM. For the same molecule, the TGI (SF-539 CNS) was 7.91 µM, the TGI (TK-10 renal) was 9.55 µM and the TGI (HCC-2998 colon) was 4.49 µM. For the same molecule, the TGI (NCI/ADR-RES ovarian) was greater than 100 µM, the TGI (SK-MEL-2 melanoma) was 3.71 µM and the TGI (MOLT-4 leukemia) was 4.55 µM. For the same molecule, the TGI (SF-295 CNS) was 6.33 µM, the TGI (MDA-N) was 13.8 µM and the TGI (MDA-MB-435) was 5.24 µM. The TGI (UO-31 renal) was 8.28 µM, the TGI (EKVX NSCLC) was 19.5 µM and the TGI (IGROV1 ovarian) was 9.12 µM. It also gave a TGI (OVCAR-4 ovarian) of 11.7 µM, a TGI (HT29 colon) of 7.38 µM and a TGI (KM12 colon) of 2.85 µM. The TGI (MDA-MB-231 breast) was 5.68 µM, the TGI (SNB-75 CNS) was 8.14 µM and the TGI (UACC-257 melanoma) was 3.57 µM. For the same molecule, the TGI (SF-268 CNS) was 11.8 µM, the TGI (UACC-62 melanoma) was 3.67 µM and the TGI (LOX IMVI melanoma) was 3.52 µM. It also gave a TGI (SK-MEL-28 melanoma) of 6.84 µM.

Work on COc1ccc2[nH]c(Cl)c(/C=C3/C(=O)N(c4ccccc4)c4ccccc43)c2c1 yielded a TGI (SW-620 colon) of 24.6 µM, a TGI (SN12C renal) of 18.9 µM and a TGI (SK-OV-3 ovarian) of 10.8 µM. For the same molecule, the TGI (MALME-3M melanoma) was 36.2 µM, the TGI (OVCAR-5 ovarian) was 94.8 µM and the TGI (HCT-116 colon) was 18.6 µM. It also gave a TGI (K-562 leukemia) of 26.4 µM, a TGI (A498 renal) greater than 100 µM and a TGI (T-47D breast) of 21.4 µM. It also gave a TGI (NCI-H522 lung) of 17.9 µM, a TGI (CCRF-CEM leukemia) of 63.4 µM and a TGI (OVCAR-3 ovarian) of 7.71 µM. The TGI (A549 NSCLC) was greater than 100 µM, the TGI (DU-145 prostate) was 76.4 µM and the TGI (MCF7 breast) was greater than 100 µM. For the same molecule, the TGI (PC-3 prostate) was greater than 100 µM, the TGI (HS 578T breast) was 39.6 µM and the TGI (RPMI-8226 leukemia) was 20.4 µM. It also gave a TGI (HCT-15 colon) of 13 µM, a TGI (CAKI-1 renal) greater than 100 µM and a TGI (786-0 renal) of 20.9 µM. For the same molecule, the TGI (M14 melanoma) was 12.9 µM, the TGI (OVCAR-8 ovarian) was 28.8 µM and the TGI (SNB-19 CNS) was 88.5 µM. For the same molecule, the TGI (BT-549 breast) was 11.3 µM, the TGI (SK-MEL-5 melanoma) was 5.97 µM and the TGI (HL-60(TB) leukemia) was 9.02 µM. For the same molecule, the TGI (U251 CNS) was 30.7 µM, the TGI (HOP-62 NSCLC) was 23.4 µM and the TGI (HOP-92 NSCLC) was greater than 100 µM. The TGI (NCI-H23 lung) was 19.5 µM, the TGI (RXF 393 renal) was 47.3 µM and the TGI (ACHN renal) was greater than 100 µM. The TGI (COLO 205 colon) was 5.89 µM, the TGI (SR leukemia) was 11.1 µM and the TGI (NCI-H460 lung) was 16.3 µM. For the same molecule, the TGI (SF-539 CNS) was 6.63 µM, the TGI (TK-10 renal) was 36.5 µM and the TGI (HCC-2998 colon) was 17.6 µM. For the same molecule, the TGI (NCI/ADR-RES ovarian) was 6.45 µM, the TGI (SK-MEL-2 melanoma) was 10.9 µM and the TGI (MOLT-4 leukemia) was greater than 100 µM. It also gave a TGI (SF-295 CNS) of 7.33 µM, a TGI (MDA-N) of 3.53 µM and a TGI (MDA-MB-435) of 4.33 µM. The TGI (UO-31 renal) was 93.1 µM, the TGI (EKVX NSCLC) was 69.5 µM and the TGI (IGROV1 ovarian) was greater than 100 µM. The TGI (HT29 colon) was 45.8 µM, the TGI (KM12 colon) was greater than 100 µM and the TGI (MDA-MB-231 breast) was 65.3 µM. For the same molecule, the TGI (SNB-75 CNS) was 49.1 µM, the TGI (UACC-257 melanoma) was 24.3 µM and the TGI (SF-268 CNS) was 23.3 µM. The TGI (UACC-62 melanoma) was 43.4 µM, the TGI (LOX IMVI melanoma) was 14.3 µM and the TGI (SK-MEL-28 melanoma) was 52 µM.
